Reference: PubChem BioAssay (NCI)
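At the GI50, growth is halved. At the TGI there is no net growth.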

Tests used:
Assay in all cases: inhibition of tumour cell growth, NCI panel, 384-well format
786-0 renal = tested on: 786-0 renal
A498 renal = tested on: A498 renal
A549 NSCLC = tested on: A549 NSCLC
ACHN renal = tested on: ACHN renal
BT-549 breast = tested on: BT-549 breast
CAKI-1 renal = tested on: CAKI-1 renal
CCRF-CEM leukemia = tested on: CCRF-CEM leukemia
COLO 205 colon = tested on: COLO 205 colon
DU-145 prostate = tested on: DU-145 prostate
EKVX NSCLC = tested on: EKVX NSCLC
HCC-2998 colon = tested on: HCC-2998 colon
HCT-116 colon = tested on: HCT-116 colon
HCT-15 colon = tested on: HCT-15 colon
HL-60(TB) leukemia = tested on: HL-60(TB) leukemia
HOP-62 NSCLC = tested on: HOP-62 NSCLC
HOP-92 NSCLC = tested on: HOP-92 NSCLC
HS 578T breast = tested on: HS 578T breast
HT29 colon = tested on: HT29 colon
IGROV1 ovarian = tested on: IGROV1 ovarian
KM12 colon = tested on: KM12 colon
LOX IMVI melanoma = tested on: LOX IMVI melanoma
M14 melanoma = tested on: M14 melanoma
MALME-3M melanoma = tested on: MALME-3M melanoma
MCF7 breast = tested on: MCF7 breast
MDA-MB-231 breast = tested on: MDA-MB-231 breast
MDA-MB-435 melanoma = tested on: MDA-MB-435 melanoma
MDA-MB-468 breast = tested on: MDA-MB-468 breast
MOLT-4 leukemia = tested on: MOLT-4 leukemia
NCI-H226 lung = tested on: NCI-H226 lung
NCI-H23 lung = tested on: NCI-H23 lung
NCI-H322M lung = tested on: NCI-H322M lung
NCI-H460 NSCLC = tested on: NCI-H460 NSCLC
NCI-H522 lung = tested on: NCI-H522 lung
NCI/ADR-RES ovarian = tested on: NCI/ADR-RES ovarian
OVCAR-3 ovarian = tested on: OVCAR-3 ovarian
OVCAR-4 ovarian = tested on: OVCAR-4 ovarian
OVCAR-5 ovarian = tested on: OVCAR-5 ovarian
OVCAR-8 ovarian = tested on: OVCAR-8 ovarian
PC-3 prostate = tested on: PC-3 prostate
RPMI-8226 leukemia = tested on: RPMI-8226 leukemia
RXF 393 renal = tested on: RXF 393 renal
SF-268 CNS = tested on: SF-268 CNS
SF-295 CNS = tested on: SF-295 CNS
SF-539 CNS = tested on: SF-539 CNS
SK-MEL-28 melanoma = tested on: SK-MEL-28 melanoma
SK-MEL-5 melanoma = tested on: SK-MEL-5 melanoma
SK-OV-3 ovarian = tested on: SK-OV-3 ovarian
SN12C renal = tested on: SN12C renal
SNB-19 CNS = tested on: SNB-19 CNS
SNB-75 CNS = tested on: SNB-75 CNS
SR leukemia = tested on: SR leukemia
SW-620 colon = tested on: SW-620 colon
T-47D breast = tested on: T-47D breast
TK-10 renal = tested on: TK-10 renal
U251 glioblastoma = tested on: U251 glioblastoma
UACC-257 melanoma = tested on: UACC-257 melanoma
UACC-62 melanoma = tested on: UACC-62 melanoma
UO-31 renal = tested on: UO-31 renal

For `CN1CCN(c2ccc(C(=O)Nc3n[nH]c4ccc(Cc5cc(F)cc(F)c5)cc34)c(NC3CCOCC3)c2)CC1`, the GI50 (786-0 renal) was 1510 nM, the TGI (786-0 renal) was 2850 nM and the GI50 (A498 renal) was 1710 nM. For the same compound, the TGI (A498 renal) was 3090 nM, the GI50 (A549 NSCLC) was 1410 nM and the TGI (A549 NSCLC) was 2730 nM. It also gave a GI50 (ACHN renal) of 1540 nM, a TGI (ACHN renal) of 2880 nM and a GI50 (BT-549 breast) of 1730 nM. It also gave a TGI (BT-549 breast) of 3120 nM, a GI50 (CAKI-1 renal) of 1630 nM and a TGI (CAKI-1 renal) of 3000 nM. The GI50 (CCRF-CEM leukemia) was 1870 nM, the TGI (CCRF-CEM leukemia) was 3300 nM and the GI50 (COLO 205 colon) was 1720 nM. The TGI (COLO 205 colon) was 3120 nM, the GI50 (DU-145 prostate) was 1550 nM and the TGI (DU-145 prostate) was 2890 nM. For the same compound, the GI50 (EKVX NSCLC) was 1200 nM, the TGI (EKVX NSCLC) was 2460 nM and the GI50 (HCC-2998 colon) was 1030 nM. For the same compound, the TGI (HCC-2998 colon) was 2220 nM, the GI50 (HCT-116 colon) was 1500 nM and the TGI (HCT-116 colon) was 2850 nM. It also gave a GI50 (HCT-15 colon) of 1160 nM, a TGI (HCT-15 colon) of 2410 nM and a GI50 (HL-60(TB) leukemia) of 1830 nM. The TGI (HL-60(TB) leukemia) was 3240 nM, the GI50 (HOP-62 NSCLC) was 1430 nM and the TGI (HOP-62 NSCLC) was 2750 nM. It also gave a GI50 (HOP-92 NSCLC) of 1140 nM, a TGI (HOP-92 NSCLC) of 2360 nM and a GI50 (HS 578T breast) of 1530 nM. For the same compound, the TGI (HS 578T breast) was 2860 nM, the GI50 (HT29 colon) was 1300 nM and the TGI (HT29 colon) was 2610 nM. For the same compound, the GI50 (IGROV1 ovarian) was 1010 nM, the TGI (IGROV1 ovarian) was 2210 nM and the TGI (KM12 colon) was 1370 nM. It also gave a GI50 (LOX IMVI melanoma) of 1530 nM, a TGI (LOX IMVI melanoma) of 2870 nM and a GI50 (M14 melanoma) of 1690 nM. It also gave a TGI (M14 melanoma) of 3060 nM, a GI50 (MALME-3M melanoma) of 1270 nM and a TGI (MALME-3M melanoma) of 2530 nM. For the same compound, the GI50 (MCF7 breast) was 1140 nM, the TGI (MCF7 breast) was 2370 nM and the GI50 (MDA-MB-231 breast) was 1230 nM. For the same compound, the TGI (MDA-MB-231 breast) was 2480 nM, the GI50 (MDA-MB-435 melanoma) was 1690 nM and the TGI (MDA-MB-435 melanoma) was 3070 nM. The GI50 (MDA-MB-468 breast) was 1120 nM, the TGI (MDA-MB-468 breast) was 2330 nM and the GI50 (MOLT-4 leukemia) was 1360 nM. For the same compound, the TGI (MOLT-4 leukemia) was 2650 nM, the GI50 (NCI-H226 lung) was 727 nM and the TGI (NCI-H226 lung) was 2070 nM. It also gave a GI50 (NCI-H23 lung) of 1230 nM, a TGI (NCI-H23 lung) of 2480 nM and a GI50 (NCI-H322M lung) of 1470 nM. The TGI (NCI-H322M lung) was 2790 nM, the GI50 (NCI-H460 NSCLC) was 1570 nM and the TGI (NCI-H460 NSCLC) was 2950 nM. The GI50 (NCI-H522 lung) was 1400 nM, the TGI (NCI-H522 lung) was 2710 nM and the GI50 (NCI/ADR-RES ovarian) was 1550 nM. It also gave a TGI (NCI/ADR-RES ovarian) of 2900 nM, a GI50 (OVCAR-3 ovarian) of 1050 nM and a TGI (OVCAR-3 ovarian) of 2290 nM. It also gave a GI50 (OVCAR-4 ovarian) of 1020 nM, a TGI (OVCAR-4 ovarian) of 2230 nM and a GI50 (OVCAR-5 ovarian) of 1480 nM. For the same compound, the TGI (OVCAR-5 ovarian) was 2840 nM, the GI50 (OVCAR-8 ovarian) was 1660 nM and the TGI (OVCAR-8 ovarian) was 3040 nM. For the same compound, the GI50 (PC-3 prostate) was 1230 nM, the TGI (PC-3 prostate) was 2480 nM and the GI50 (RPMI-8226 leukemia) was 1350 nM. The TGI (RPMI-8226 leukemia) was 2650 nM, the GI50 (RXF 393 renal) was 825 nM and the TGI (RXF 393 renal) was 2200 nM. For the same compound, the GI50 (SF-268 CNS) was 1600 nM, the TGI (SF-268 CNS) was 2970 nM and the GI50 (SF-295 CNS) was 1680 nM. For the same compound, the TGI (SF-295 CNS) was 3050 nM, the GI50 (SF-539 CNS) was 1680 nM and the TGI (SF-539 CNS) was 3060 nM. The GI50 (SK-MEL-28 melanoma) was 1670 nM, the TGI (SK-MEL-28 melanoma) was 3040 nM and the GI50 (SK-MEL-5 melanoma) was 1590 nM. It also gave a TGI (SK-MEL-5 melanoma) of 2940 nM, a GI50 (SK-OV-3 ovarian) of 1430 nM and a TGI (SK-OV-3 ovarian) of 2760 nM. The GI50 (SN12C renal) was 1210 nM, the TGI (SN12C renal) was 2480 nM and the GI50 (SNB-19 CNS) was 1700 nM. The TGI (SNB-19 CNS) was 3110 nM, the GI50 (SNB-75 CNS) was 1370 nM and the TGI (SNB-75 CNS) was 2670 nM. It also gave a GI50 (SR leukemia) of 24.3 nM, a TGI (SR leukemia) of 55.4 nM and a GI50 (SW-620 colon) of 1490 nM. It also gave a TGI (SW-620 colon) of 2840 nM, a GI50 (T-47D breast) of 1350 nM and a TGI (T-47D breast) of 2650 nM. It also gave a GI50 (TK-10 renal) of 1570 nM, a TGI (TK-10 renal) of 2930 nM and a GI50 (U251 glioblastoma) of 1680 nM. The TGI (U251 glioblastoma) was 3060 nM, the GI50 (UACC-257 melanoma) was 1550 nM and the TGI (UACC-257 melanoma) was 2900 nM. It also gave a GI50 (UACC-62 melanoma) of 1600 nM, a TGI (UACC-62 melanoma) of 2960 nM and a GI50 (UO-31 renal) of 1590 nM. For the same compound, the TGI (UO-31 renal) was 2950 nM.
